The text below walks through data of PubChem BioAssay (NCI).

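Test compounds were applied to cells in 96-well plates for 48 hours at 5 doses. The concentration for full growth arrest is given as TGI.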 Bounds are passed on as bounds.

Assay in all cases: growth of human tumour cells (NCI), 48 h
Test [1] has as its system CAKI-1 renal.
In test [2] the test system is EKVX NSCLC.
The test system of test [3] is HOP-92 NSCLC.
For test [4], the system named is HS 578T breast.
For test [5], the system named is IGROV1 ovarian.
Test [6] deals with MALME-3M melanoma.
Test [7] deals with MDA-MB-231 breast.
For test [8], the system named is NCI-H522 lung.
For test [9], the system named is PC-3 prostate.
Test [10] relates to UO-31 renal.

Consider `O=C1C(c2c(O)[nH]c3ccc(S(=O)(=O)O)cc23)=Nc2ccccc21`, for which the TGI in [1], in [2], in test [3], in test [4], in [5] and in test [6] was greater than 100 µM each time. Moreover, the TGI in test [7], in test [8], in test [9] and in test [10] was greater than 100 µM in each case.
For `CC(=O)N/N=C1/NN(C(C)=O)C2(S1)C(=O)Nc1ccc(Br)cc12` (stereo not given), the TGI in [1], in [2], in test [3], in [4], in test [5] and in test [6] was greater than 100 µM each time. The TGI in test [7], in test [8], in test [9] and in test [10] was greater than 100 µM throughout.
In the case of `NC(CSCc1ccccc1)C(=O)O` (stereo not given), the TGI in [1], in test [2], in test [3], in [4], in test [5] and in test [6] was greater than 100 µM throughout. Also, the TGI in test [7], in test [8], in test [9] and in test [10] was greater than 100 µM throughout.
For the compound `O=C1/C(=C/c2ccccc2S)N=C(c2ccccc2)N1c1nc2ccc(Sc3ccccc3)cc2[nH]1`, the TGI in test [1] was greater than 100 µM; in test [2], greater than 100 µM; in test [3], greater than 100 µM; in test [4], 72.6 µM; in test [5], greater than 100 µM; in test [6] it was greater than 100 µM. Moreover, the TGI was 71.6 µM in [7], 54.2 µM in test [8], greater than 100 µM in test [9] and greater than 100 µM in test [10].
